Source: patent US11241433B2, “Treatment or prevention of autism disorders using menthol, linalool and/or icilin” (Société des Produits Nestlé S.A., priority 2013, dated 2022)

Columns and labels:
Assay type in all cases: cell-based
[1] = test system: neocortex; assay: action potential measurements in mouse brain slice, neocortex; details: for amount of current required to trigger an action potential / threshold to trigger an action potential: neocortex
Excerpt: (§1) A mouse brain slice was used to study the effects of Menthol, Linalool and Icilin. The amygdaloid complex is located within the medial temporal lobe in neocortex and amygdala. The lateral and basolateral nuclei of the amygdaloid complex receive sensory information from cortical and thalamic structures, process the information, and then transmit the information, either directly or through the basal nucleus, to the central nucleus. For experimental analysis of neural activity, synaptic responses from the basolateral complex can be evoked electrically using electrodes, and the action potentials can be measured.

[2] = test system: Lateral Amygdala glutamatergic neuron (in a mouse brain slice); assay: whole cell, current clamp recordings, square pulse of 2.5 s at high depolarization; details: square pulse of 2.5 s at high depolarization of membrane potential (approximately -30 mV); relative to control; FIG. 2
Excerpt: as §1
A square pulse of 2.5 s was applied at high depolarization of membrane potential (approximately −30 mV).

[3] = test system: Lateral Amygdala glutamatergic neuron (in a mouse brain slice); assay: whole cell, current clamp recordings of spontaneous bursts with increasing concentration of gabazine
Excerpt: as §1

## O=C1NC(c2cccc([N+](=O)[O-])c2)=CCN1c1ccccc1O [Icilin]
[1]
  action potentials at higher stimulation levels: abort action potentials at higher stimulation levels
  amount of current required to trigger an action potential: increase the amount of current required to trigger an action potential
  threshold to trigger an action potential: increase the threshold to trigger an action potential
[2]
  inactivation of the sodium fast channels / further neural firing: inactivation of the sodium fast channels happens sooner relative to control

## C=CC(C)(O)CCC=C(C)C (centres unmarked) [Linalool]
[1]
  action potentials at higher stimulation levels: abort action potentials at higher stimulation levels
  amount of current required to trigger an action potential: increase the amount of current required to trigger an action potential
  threshold to trigger an action potential: increase the threshold to trigger an action potential
[2]
  inactivation of the sodium fast channels / further neural firing: inactivation of the sodium fast channels happens sooner relative to control

## CC1CCC(C(C)C)C(O)C1 (centres unmarked) [Menthol]
[1]
  action potentials at higher stimulation levels: abort action potentials at higher stimulation levels
  amount of current required to trigger an action potential: increase the amount of current required to trigger an action potential
  threshold to trigger an action potential: increase the threshold to trigger an action potential
[2]
  inactivation of the sodium fast channels / further neural firing: inactivation of the sodium fast channels happens sooner relative to control
[3]; Menthol 250 μM applied extracellularly 10 minutes previous to and during increasing concentrations of gabazine, FIG. 5 compared to FIG. 3
  spontaneous action potential bursts: complete absence or a strongly decreased presence of spontaneous bursts

## COc1ccc(-c2ccc(=N)n(CCCC(=O)O)n2)cc1 [gabazine]
[3]; increasing concentrations of gabazine alone, applied extracellularly, recordings of 5 minutes each, 10 minute washout, FIG. 3
  spontaneous action potential bursts: neurons spontaneously present action potential bursts
